Source: ChEMBL document CHEMBL2424624, “Syntheses and antitumor activities of N'1,N'3-dialkyl-N'1,N'3-di-(alkylcarbonothioyl) malonohydrazide: the discovery of elesclomol” (Bioorg Med Chem Lett, 2013)

Legend:
Assay type in all cases: ADME, organism-based
[1] = Half life in rat at 5 mg/kg; design: dose 5 mg/kg; conditions: in vivo
[2] = AUC in rat at 25 mg/kg in presence of taxol; design: dose 25 mg/kg; conditions: plasma
[3] = Half life in nu/nu mouse at 25 mg/kg in presence of taxol; design: dose 25 mg/kg; conditions: in vivo
[4] = Volume of distribution at steady state in Sprague-Dawley rat at 25 mg/kg, iv; design: dose 25 mg/kg, route intravenous; conditions: in vivo, read-out: Vdss
[5] = Apparent terminal half life in Sprague-Dawley rat at 25 mg/kg, iv; design: dose 25 mg/kg, route intravenous; conditions: in vivo, read-out: betat1/2(app) (converted)
[6] = Clearance in nu/nu mouse at 25 mg/kg, iv; design: dose 25 mg/kg, route intravenous; conditions: in vivo
[7] = Clearance in Sprague-Dawley rat at 25 mg/kg, iv; design: dose 25 mg/kg, route intravenous; conditions: in vivo
[8] = Apparent terminal half life in nu/nu mouse at 25 mg/kg, iv; design: dose 25 mg/kg, route intravenous; conditions: in vivo, read-out: betat1/2(app) (converted)
[9] = Volume of distribution at steady state in nu/nu mouse at 25 mg/kg, iv; design: dose 25 mg/kg, route intravenous; conditions: in vivo, read-out: Vdss
[10] = Cmax in Sprague-Dawley rat at 25 mg/kg, iv; design: dose 25 mg/kg, route intravenous; conditions: in vivo
[11] = AUC in rat at 5 mg/kg; design: dose 5 mg/kg; conditions: plasma
[12] = Cmax in nu/nu mouse at 25 mg/kg, iv; design: dose 25 mg/kg, route intravenous; conditions: in vivo
[13] = Half life in rat at 25 mg/kg in presence of taxol; design: dose 25 mg/kg; conditions: in vivo
[14] = AUC in nu/nu mouse at 25 mg/kg in presence of taxol; design: dose 25 mg/kg; conditions: plasma
[15] = Cmax in rat at 5 mg/kg; design: dose 5 mg/kg; conditions: in vivo
[16] = AUC in nu/nu mouse at 25 mg/kg, iv; design: dose 25 mg/kg, route intravenous; conditions: plasma
[17] = Cmax in nu/nu mouse at 25 mg/kg in presence of taxol; design: dose 25 mg/kg; conditions: in vivo
[18] = Cmax in rat at 25 mg/kg in presence of taxol; design: dose 25 mg/kg; conditions: in vivo
[19] = AUC in Sprague-Dawley rat at 25 mg/kg, iv; design: dose 25 mg/kg, route intravenous; conditions: plasma
[20] = Cmax in rat at 5 mg/kg in presence of STA-4783; design: dose 5 mg/kg; conditions: in vivo
[21] = Half life in nu/nu mouse at 5 mg/kg in presence of STA-4783; design: dose 5 mg/kg; conditions: in vivo
[22] = AUC in nu/nu mouse at 5 mg/kg in presence of STA-4783; design: dose 5 mg/kg; conditions: plasma
[23] = Cmax in nu/nu mouse at 5 mg/kg in presence of STA-4783; design: dose 5 mg/kg; conditions: in vivo
[24] = AUC in rat at 5 mg/kg in presence of STA-4783; design: dose 5 mg/kg; conditions: plasma

Structure (SMILES): CN(NC(=O)CC(=O)NN(C)C(=S)c1ccccc1)C(=S)c1ccccc1 [ELESCLOMOL]
- half-life [1]: 3.1 h
- AUC [2]: 36.8 µM·h
- half-life [3]: 1.2 h
- Vd [4]: 0.1 L/kg
- half-life [5]: 1.94 h
- clearance [6]: 29 mL/min/kg
- clearance [7]: 13.2 mL/min/kg
- half-life [8]: 1.9 h
- Vd [9]: 0.51 L/kg
- Cmax [10]: 56.3 µM
- AUC [11]: 10.3 µM·h
- Cmax [12]: 85.2 µM
- half-life [13]: 1.7 h
- AUC [14]: 11.9 µM·h
- Cmax [15]: 21.7 µM
- AUC [16]: 35.9 µM·h
- Cmax [17]: 37.8 µM
- Cmax [18]: 63.3 µM
- AUC [19]: 32.7 µM·h

Structure (SMILES): CC(=O)O[C@H]1C(=O)[C@@]2(C)[C@H]([C@H](OC(=O)c3ccccc3)[C@]3(O)C[C@H](OC(=O)[C@H](O)[C@@H](NC(=O)c4ccccc4)c4ccccc4)C(C)=C1C3(C)C)[C@]1(OC(C)=O)CO[C@@H]1C[C@@H]2O [PACLITAXEL]
- Cmax [20]: 20.4 µM
- half-life [21]: 2.26 h
- AUC [22]: 2.95 µM·h
- Cmax [23]: 10.6 µM
- AUC [24]: 11.9 µM·h
